Data set [1] can be described thus: Plasma pharmacokinetics after IV CMS (Period 1). The following applies: human, in vivo, iv; for clearance: CL; for Vd: Vdss; for Tmax: median (min-max). As to the method: (§1) During dosing Period 1, subjects in Cohorts 1, 2, and 3 received 2 to 3 doses of IV CMS (total exposure 5–10 mg/kg) based on the specific cohort regimen. During dosing Period 2, the same subjects then received 2 to 4 doses of 75 mg of CMS via aerosolized administration, and during dosing Period 3, subjects received a combination of IV and aerosolized CMS based on the specific cohort regimen. Each dosing period was followed by a washout period of at least 3 days (Table 1).
(§2) For all plasma PK collections, 3 mL samples of whole blood were drawn into collection tubes containing sodium heparin and placed immediately on ice at specified time intervals. […] The blood was centrifuged at 2500× g within 2 h of collection, and the plasma fraction was removed and frozen at −70 °C for shipment to the Analytical Pharmacology Laboratory at the University of Toledo.
(§3) The PK analysis was conducted using Phoenix™ WinNonlin® Version 6.2 (Pharsight, a Certara Company).
(§4) Concentration versus time profiles were investigated for each of the four colistin analytes. These profiles were augmented by the inclusion of estimated concentrations at additional time points, including dosing Period 1—immediately prior to the final IV dose; dosing Period 3—immediately prior to the final IV dose; and after the final IV dose. The following PK parameters were estimated for each: maximum observed concentration (Cmax), area under the plasma concentration versus time curve, AUC (e.g., AUC 0–inf), AUC 0–t) versus time curve, time to maximum observed concentration (Tmax), elimination half-life (t1/2), slope of the post-distributive terminal portion of plasma concentration versus time curve (Kel), total body clearance/bioavailability (CL/F), and the apparent steady-state volume of distribution/bioavailability ([…]). The concentrations of intravenously administered CMS, aerosolized drug, and both delivery methods used simultaneously were compared. In addition, the presence or absence of a proportionality dose-dependent effect was determined.

The nature of a further data set: clinical. The following applies: in vivo. As to the method: as §1, §2, §3, §4
Data set [2] can be described thus: Nephrotoxicity (serum creatinine). In kind it is in vivo, healthy adult volunteers. More on the design: serum creatinine increase (absolute): unit not given here. The following applies: for serum creatinine increase (absolute) / serum creatinine increase (percent): 24 h post first dose. Here is the method:
Serum samples for kidney biomarkers were obtained for serum cystatin C, NGAL, and serum β microglobulin levels. Urine samples were obtained for urine protein, creatinine, and microalbumin excretion (see Supplementary Tables S1–S10 and Data S1–S6).
(§5) Safety assessments for TEAEs were conducted, including physical examinations (including neurological evaluations), […], vital signs, clinical laboratory tests, selected biomarkers for acute kidney injury (see section on kidney biomarkers), spirometry, and ECG measurements (see Supplementary Data S5 and S6 for clinical laboratory evaluations and schedule of events). If symptoms of ataxia were present, SARA (Scale for the Assessment and Rating of Ataxia, according to Schmitz-Hübsch et al.) assessment forms were completed to assess their severity.

For data set [3], the system named is A. baumannii or P. aeruginosa. The following applies: retrospective study, cited from earlier work. From the text:
Whether the aerosolized administration of CMS translates into greater drug efficacy against MDROs in the management of HAP/VAP caused by MDROs, however, still remains a matter of controversy, as is the issue of the efficacy of colistin combination therapy. A retrospective study of pneumonia patients who received aerosolized colistin therapy for a median of 14 days reported the microbiological eradication of the causative MDRO (A. baumannii or P. aeruginosa) in 18 out of 21 cases. This high rate of eradication corroborates another retrospective study in which 37 out of 40 patients who re ...

The nature of data set [4]: Neurotoxicity (paresthesias, ataxia, SARA scores). In kind it is in vivo, healthy adult volunteers. The following applies: Cohort 1, 2.5 mg/kg q12h × 2 doses; Periods 1 and 3 combined; seven of eighteen. Here is the method: as §5
The mark [5] stands for this setting: 2.5 mg/kg, Period 1, Cohort 1: IV 2.5 mg/kg colistin base activity q12h x 2 doses, plasma after final dose, mean (SD), SD.
Where [6] appears, read: 2.5 mg/kg, Period 1, Cohort 2: IV 2.5 mg/kg colistin base activity q8h x 3 doses, plasma after final dose, mean (SD), SD.
Setting [7] is: 3.3 mg/kg, Period 1, Cohort 3: IV 3.3 mg/kg colistin base activity q8h x 3 doses, plasma after final dose, mean (SD), SD.
The mark [8] stands for this setting: Cohort 3, first of four subjects.
Setting [9] is: Cohort 3, fourth of four subjects.
Setting [10] is: Cohort 3, second of four subjects.
The mark [11] stands for this setting: Cohort 3, third of four subjects.

Molecules are shown by their SMILES. Where a SMILES comes first, the peptide text is derived from it. Bridges are numbered along the chain shown (N, C = ends). [ ]: non-standard residue; d: D form. The star is where a group is joined. Heptanoyl(6-Me) = CC(C)CCCCC(=O)*; X1 = CC[C@H](C)CCCCC(=O)*; Dab = NCC[C@H](N)C(=O)O

As a reminder, the AUC(0-t) is the area under the concentration-time curve up to a stated or last time point. One may read the AUC(0-inf) as the area under the concentration-time curve extrapolated to infinity. As a reminder, the clearance is the rate of elimination divided by the concentration. Broadly, the Cmax is the highest concentration seen after dosing. Broadly, the Vd is the apparent volume that relates the amount in the body to the concentration in plasma or blood. As a reminder, the half-life is the time needed for the level to fall by half in the phase considered. The Tmax is the time at which the peak concentration occurs. On to `CC(C)CCCCC(=O)N[C@@H](CCN)C(=O)N[C@H](C(=O)N[C@@H](CCN)C(=O)N[C@H]1CCNC(=O)[C@H]([C@@H](C)O)NC(=O)[C@H](CCN)NC(=O)[C@H](CCN)NC(=O)[C@H](CC(C)C)NC(=O)[C@@H](CC(C)C)NC(=O)[C@H](CCN)NC1=O)[C@@H](C)O` [colistin B] ({Heptanoyl(6-Me)}-[Dab]T[Dab][Dab][Dab][dL]L[Dab][Dab]T; lactam 4-C), for which the AUC(0-t) is 1940 ng·h/mL in data set [1] (setting [5]), 3590 ng·h/mL in data set [1] (setting [6]) and 5680 ng·h/mL in data set [1] (setting [7]). Further, the figures for the area under the curve AUC(0-inf) in data set [1] (setting [5]), in data set [1] (setting [6]) and in data set [1] (setting [7]) were 3290 ng·h/mL, 5150 ng·h/mL and 7160 ng·h/mL, respectively. Moreover, the figures for the clearance in data set [1] (setting [5]), in data set [1] (setting [6]) and in data set [1] (setting [7]) were 96.8 mL/min, 59 mL/min and 58.2 mL/min, respectively. Moreover, the Cmax in data set [1] (setting [5]) was determined as 570 ng/mL; in data set [1] (setting [6]), 891 ng/mL; in data set [1] (setting [7]), 1390 ng/mL. For the same molecule, the Vd is 26.3 L in data set [1] (setting [5]), 18.1 L in data set [1] (setting [6]) and 17.3 L in data set [1] (setting [7]). Moreover, the half-life in data set [1] (2.5 mg/kg, t1/2, Period 1, Cohort 1: IV 2.5 mg/kg colistin base activity q12h x 2 doses, plasma after final dose, mean (SD), SD) was 3.45 h; in data set [1] (2.5 mg/kg, t1/2, Period 1, Cohort 2: IV 2.5 mg/kg colistin base activity q8h x 3 doses, plasma after final dose, mean (SD), SD), 3.64 h; in data set [1] (3.3 mg/kg, t1/2, Period 1, Cohort 3: IV 3.3 mg/kg colistin base activity q8h x 3 doses, plasma after final dose, mean (SD), SD), 3.55 h; in data set [1] (elimination t1/2 (half-life, as stated in text), plasma), roughly 3.5 h. In addition, the Tmax in data set [1] (2.5 mg/kg, Period 1, Cohort 1: IV 2.5 mg/kg colistin base activity q12h x 2 doses, plasma after final dose) came out at 0.667 h; in data set [1] (2.5 mg/kg, Period 1, Cohort 2: IV 2.5 mg/kg colistin base activity q8h x 3 doses, plasma after final dose), 0.6 h; in data set [1] (3.3 mg/kg, Period 1, Cohort 3: IV 3.3 mg/kg colistin base activity q8h x 3 doses, plasma after final dose) it was 0.6 h. In the data set “clinical”, the “circulating plasma concentrations following aerosol administration alone” value was “no detectable concentrations”.
`CC[C@H](C)CCCCC(=O)N[C@@H](CCN)C(=O)N[C@H](C(=O)N[C@@H](CCN)C(=O)N[C@H]1CCNC(=O)[C@H]([C@@H](C)O)NC(=O)[C@H](CCN)NC(=O)[C@H](CCN)NC(=O)[C@H](CC(C)C)NC(=O)[C@@H](CC(C)C)NC(=O)[C@H](CCN)NC1=O)[C@@H](C)O` [colistin] (X1-[Dab]T[Dab][Dab][Dab][dL]L[Dab][Dab]T; lactam 4-C): the “subjects with reversible nephrotoxicity (elevated serum creatinine at 24 h post first dose)” value in data set [2] (Cohort 3, after three doses of IV colistin 2.5 mg/kg q8h (so in the source)) was “four”. The “serum creatinine increase (absolute)” value came to 0.67 in data set [2] (setting [8]), 0.3 in data set [2] (setting [9]), 0.82 in data set [2] (setting [10]) and 0.69 in data set [2] (setting [11]). Further, the “serum creatinine increase (percent)” value is reported as 95.7% in data set [2] (setting [8]), 45.5% in data set [2] (setting [9]), 82.0% in data set [2] (setting [10]) and 73.4% in data set [2] (setting [11]). Also, in data set [2] (Cohort 3, ±4 days), the “time over which creatinine increases resolved” value is on record as 10 days. Further, the “effect on serum creatinine” value in data set [2] (dose increased from 5 mg/kg/day (Cohort 1; 2.5 mg/kg q12h) to 7.5 mg/kg/day (Cohort 2; 2.5 mg/kg q8h)) was “did not result in increases in serum creatinine”. Also, the “patients with negative follow-up cultures” value in data set [3] (aerosolized colistin therapy) is given as 37 out of 40. Further, in data set [3] (pneumonia patients, aerosolized colistin for a median of 14 days), the “microbiological eradication of the causative MDRO (cases)” value is listed as 18 out of 21. Besides, in data set [4], the “subjects reporting self-limited perioral paresthesias” value worked out at 39%.

The values above are taken from paper PMC9029538, “Dosing Colistimethate Every 8 h Results in Higher Plasma Concentrations of Active Colistin Than Every 12-Hourly Dosing without Increase in Nephrotoxicity: A Phase 1 Pharmacokinetics Trial in Healthy Adult Volunteers” (Antibiotics, 2022).
